ChEMBL document CHEMBL1137641, “Influence of inoculum size on the selection of resistant mutants of Escherichia coli in relation to mutant prevention concentrations of marbofloxacin” (2007)
Converted amounts (≈) assume the structure as drawn.

Assays:
Type in all cases: functional
Escherichia coli [1] = experiment: Antibacterial activity against Escherichia coli ATCC 25922 by microdilution method
Escherichia coli [2] = experiment: Antibacterial activity against Escherichia coli ATCC 25922 assessed as mutant prevention concentration after 24 hrs by agar dilution method
Escherichia coli [3] = experiment: Bactericidal activity against marbofloxacin-susceptible Escherichia coli ATCC 25922 assessed as final bacterial count using inoculum size of 10^5 CFU/mL inside the mutant selection window for 100% of time
Escherichia coli [4] = experiment: Bactericidal activity against marbofloxacin-resistant Escherichia coli ATCC 25922 assessed as final bacterial count using inoculum size of 10^5 CFU/mL inside the mutant selection window for 100% of time
Escherichia coli [5] = experiment: Bactericidal activity against marbofloxacin-susceptible Escherichia coli ATCC 25922 assessed as final bacterial count using inoculum size of 10^7 CFU/mL inside the mutant selection window for 100% of time
Escherichia coli [6] = experiment: Bactericidal activity against marbofloxacin-resistant Escherichia coli ATCC 25922 assessed as final bacterial count using inoculum size of 10^7 CFU/mL inside the mutant selection window for 100% of time
Escherichia coli [7] = experiment: Bactericidal activity against marbofloxacin-resistant Escherichia coli ATCC 25922 assessed as final bacterial count using inoculum size of 10^9 CFU/mL inside the mutant selection window for 100% of time
Escherichia coli [8] = experiment: Bactericidal activity against marbofloxacin-susceptible Escherichia coli ATCC 25922 assessed as final bacterial count using inoculum size of 10^5 CFU/mL inside the mutant selection window for 25% of time
Escherichia coli [9] = experiment: Bactericidal activity against marbofloxacin-susceptible Escherichia coli ATCC 25922 assessed as final bacterial count using inoculum size of 10^7 CFU/mL inside the mutant selection window for 25% of time
Escherichia coli [10] = experiment: Bactericidal activity against marbofloxacin-susceptible Escherichia coli ATCC 25922 assessed as final bacterial count using inoculum size of 10^9CFU/mL inside the mutant selection window for 25% of time
Escherichia coli [11] = experiment: Bactericidal activity against marbofloxacin-susceptible Escherichia coli ATCC 25922 assessed as final bacterial count using inoculum size of 10^5 CFU/mL inside the mutant selection window for 0% of time
Escherichia coli [12] = experiment: Bactericidal activity against marbofloxacin-susceptible Escherichia coli ATCC 25922 assessed as final bacterial count using inoculum size of 10^7 CFU/mL inside the mutant selection window for 0% of time
Escherichia coli [13] = experiment: Bactericidal activity against marbofloxacin-susceptible Escherichia coli ATCC 25922 assessed as final bacterial count using inoculum size of 10^9CFU/mL inside the mutant selection window for 0% of time
Escherichia coli [14] = experiment: Bactericidal activity against marbofloxacin-susceptible Escherichia coli ATCC 25922 assessed as area between the control curve and time kill curve using inoculum size of 10^5 CFU/mL inside the mutant selection window for 100% of time
Escherichia coli [15] = experiment: Bactericidal activity against marbofloxacin-resistant Escherichia coli ATCC 25922 assessed as area between the control curve and time kill curve using inoculum size of 10^5 CFU/mL inside the mutant selection window for 100% of time
Escherichia coli [16] = experiment: Bactericidal activity against marbofloxacin-susceptible Escherichia coli ATCC 25922 assessed as area between the control curve and time kill curve using inoculum size of 10^7 CFU/mL inside the mutant selection window for 100% of time
Escherichia coli [17] = experiment: Bactericidal activity against marbofloxacin-resistant Escherichia coli ATCC 25922 assessed as area between the control curve and time kill curve using inoculum size of 10^7 CFU/mL inside the mutant selection window for 100% of time
Escherichia coli [18] = experiment: Bactericidal activity against marbofloxacin-resistant Escherichia coli ATCC 25922 assessed as area between the control curve and time kill curve using inoculum size of 10^9 CFU/mL inside the mutant selection window for 100% of time
Escherichia coli [19] = experiment: Bactericidal activity against marbofloxacin-susceptible Escherichia coli ATCC 25922 assessed as area between the control curve and time kill curve using inoculum size of 10^5 CFU/mL inside the mutant selection window for 25% of time
Escherichia coli [20] = experiment: Bactericidal activity against marbofloxacin-susceptible Escherichia coli ATCC 25922 assessed as area between the control curve and time kill curve using inoculum size of 10^7 CFU/mL inside the mutant selection window for 25% of time
Escherichia coli [21] = experiment: Bactericidal activity against marbofloxacin-susceptible Escherichia coli ATCC 25922 assessed as area between the control curve and time kill curve using inoculum size of 10^9 CFU/mL inside the mutant selection window for 25% of time
Escherichia coli [22] = experiment: Bactericidal activity against marbofloxacin-susceptible Escherichia coli ATCC 25922 assessed as area between the control curve and time kill curve using inoculum size of 10^5 CFU/mL inside the mutant selection window for 0% of time
Escherichia coli [23] = experiment: Bactericidal activity against marbofloxacin-susceptible Escherichia coli ATCC 25922 assessed as area between the control curve and time kill curve using inoculum size of 10^7 CFU/mL inside the mutant selection window for 0% of time
Escherichia coli [24] = experiment: Bactericidal activity against marbofloxacin-susceptible Escherichia coli ATCC 25922 assessed as area between the control curve and time kill curve using inoculum size of 10^9 CFU/mL inside the mutant selection window for 0% of time
[25] = T>MIC in Escherichia coli ATCC 25922 at time with in mutant selection window of 100%
[26] = T>MIC in Escherichia coli ATCC 25922 at time with in mutant selection window of 25%
[27] = T>MIC in Escherichia coli ATCC 25922 at time with in mutant selection window of 0%
[28] = Effect on Escherichia coli ATCC 25922 assessed as time at which drug concentration above the mutant prevention concentration at time with in mutant selection window of 100%
[29] = Effect on Escherichia coli ATCC 25922 assessed as time at which drug concentration above the mutant prevention concentration at time with in mutant selection window of 25%
[30] = Effect on Escherichia coli ATCC 25922 assessed as time at which drug concentration above the mutant prevention concentration at time with in mutant selection window of 0%

Structure (SMILES): CN1CCN(c2c(F)cc3c(=O)c(C(=O)O)cn4c3c2OCN4C)CC1 [MARBOFLOXACIN]
- MIC (Escherichia coli [1]): 8 ng/mL (≈ 0.0221 µM)
- Activity (Escherichia coli [2]): 0.256 µg/mL
- CFU (Escherichia coli [3]): 2 ×10⁶ /ml
- CFU (Escherichia coli [4]): 1 ×10⁸ /ml
- CFU (Escherichia coli [5]): 7 ×10⁴ /ml
- CFU (Escherichia coli [6]): 6 ×10⁸ /ml
- CFU (Escherichia coli [7]): 5 ×10⁷ /ml
- CFU (Escherichia coli [8]): 6 ×10⁴ /ml
- CFU (Escherichia coli [9]): 8 ×10⁴ /ml
- CFU (Escherichia coli [10]): 3 ×10⁴ /ml
- CFU (Escherichia coli [11]): 7 ×10³ /ml
- CFU (Escherichia coli [12]): 2 ×10⁴ /ml
- CFU (Escherichia coli [13]): 1 ×10⁴ /ml
- ABBC (Escherichia coli [14]): 53 log10CFU/ml/hr
- ABBC (Escherichia coli [15]): 51 log10CFU/ml/hr
- ABBC (Escherichia coli [16]): 60 log10CFU/ml/hr
- ABBC (Escherichia coli [17]): 56 log10CFU/ml/hr
- ABBC (Escherichia coli [18]): 44 log10CFU/ml/hr
- ABBC (Escherichia coli [19]): 54 log10CFU/ml/hr
- ABBC (Escherichia coli [20]): 56 log10CFU/ml/hr
- ABBC (Escherichia coli [21]): 53 log10CFU/ml/hr
- ABBC (Escherichia coli [22]): 54 log10CFU/ml/hr
- ABBC (Escherichia coli [23]): 57 log10CFU/ml/hr
- ABBC (Escherichia coli [24]): 51 log10CFU/ml/hr
- T>MIC [25]: 100%
- T>MIC [26]: 100%
- T>MIC [27]: 100%
- Activity [28]: 0%
- Activity [29]: 75%
- Activity [30]: 100%
